From the Kinase Knowledgebase extract (Sharma et al. 2016)

Key:
MAPK14 (human) = MAPK14 (human) (UniProt Q16539); test: Inhibition of TNF-alpha Release from PBMC
MAPK14 (Balb/c mice) = test: Inhibition of TNF-alpha Release in Balb/c Mice; details: dose or concentration not given here

MAPK14 (human), sequence (Q16539 whole entry, looked up): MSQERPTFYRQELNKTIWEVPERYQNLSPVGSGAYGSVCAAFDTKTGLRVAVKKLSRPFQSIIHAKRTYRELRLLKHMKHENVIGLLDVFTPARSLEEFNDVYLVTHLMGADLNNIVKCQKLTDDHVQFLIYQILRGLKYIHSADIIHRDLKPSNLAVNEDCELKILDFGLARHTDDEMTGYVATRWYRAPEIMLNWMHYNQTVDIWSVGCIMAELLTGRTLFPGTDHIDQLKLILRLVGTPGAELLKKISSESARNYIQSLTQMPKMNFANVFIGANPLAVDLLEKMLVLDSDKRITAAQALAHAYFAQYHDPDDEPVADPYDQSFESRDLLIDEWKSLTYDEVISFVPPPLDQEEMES

Row | IC50 (MAPK14 (human)) | Structure (SMILES) | inhibition (MAPK14 (Balb/c mice))
1 | 0.5 nM | C[C@H](Nc1nccc(-c2c(-c3cccc(C(F)(F)F)c3)nc3nc(N)ccn23)n1)c1ccccc1 | 97%
2 | 27 nM | CSc1nccc(-c2c(-c3cccc(C(F)(F)F)c3)nc3nc(N)ccn23)n1 | 38%
3 |  | CSc1nccc(-c2c(-c3ccccc3)nc3nc(N)ccn23)n1 | 23%
4 | 199 nM | Nc1ccn2c(-c3ccncn3)c(-c3ccc(F)cc3)nc2n1 | 91%
5 |  | Nc1ccn2c(-c3ccncn3)c(-c3ccccc3)nc2n1 | 73%
6 | 35 nM | Nc1ccn2c(-c3ccncc3)c(-c3cccc(C(F)(F)F)c3)nc2n1 | 99%
7 | 278 nM | Nc1ccn2c(-c3ccncn3)c(-c3cccc(C(F)(F)F)c3)nc2n1 | 85%
8 | 55 nM | Nc1ccn2c(-c3ccncc3)c(-c3cccc(F)c3)nc2n1 | 100%
9 | 14 nM | COc1ccc(CNc2nccc(-c3c(-c4ccccc4)nc4nc(N)ccn34)n2)cc1 | 
10 | 8 nM | Nc1ccn2c(-c3ccnc(N4CCCCC4)n3)c(-c3ccccc3)nc2n1 | 63%
11 | 49 nM | Nc1ccn2c(-c3ccncc3)c(-c3ccc(F)cc3)nc2n1 | 100%
12 | 520 nM | CS(=O)(=O)c1nccc(-c2c(-c3cccc(C(F)(F)F)c3)nc3nc(N)ccn23)n1 | 10%
13 | 4 nM | Nc1ccn2c(-c3ccnc(NCc4ccccc4)c3)c(-c3cccc(C(F)(F)F)c3)nc2n1 | 19%
14 | 10 nM | CSc1nccc(-c2c(-c3cccc(F)c3)nc3nc(N)ccn23)n1 | 51%
15 |  | Nc1ccn2c(-c3ccnc(NCc4ccccc4)c3)c(-c3ccc(F)cc3)nc2n1 | 42%
16 |  | C[C@H](Nc1cc(-c2c(-c3ccc(F)cc3)nc3nc(N)ccn23)ccn1)c1ccccc1 | 97%
17 | 1 nM | C[C@H](Nc1nccc(-c2c(-c3ccc(F)cc3)nc3nc(N)ccn23)n1)C1CCCCC1 | 74%
18 |  | COc1nccc(-c2c(-c3ccccc3)nc3nc(N)ccn23)n1 | 87%
19 | 37 nM | CSc1nccc(-c2c(-c3ccc(F)cc3)nc3nc(N)ccn23)n1 | 68%
20 | 333 nM | Nc1ccn2c(-c3ccnc4ccccc34)c(-c3ccc(F)cc3)nc2n1 | 26%
21 | 162 nM | Nc1ccn2c(-c3ccncc3)c(-c3cccc(Cl)c3)nc2n1 | 47%
22 | 0.4 nM | C[C@H](Nc1nccc(-c2c(-c3ccccc3)nc3nc(N)ccn23)n1)c1ccccc1 | 100%
23 | 21 nM | Nc1ccn2c(-c3ccncc3)c(-c3ccc(F)c(Cl)c3)nc2n1 | 100%
24 | 55 nM | Nc1ccn2c(-c3ccncc3)c(-c3ccccc3)nc2n1 | 100%
25 | 3410 nM | CS(=O)(=O)c1nccc(-c2c(-c3ccccc3)nc3nc(N)ccn23)n1 | 
